# Measured values taken from US20050267204A1, “Synergistic gold-containing compositions” (MEDICAL INNOVATIONS LIMITED, priority 1996, published 2005).
# “Also recorded” adds a separate entry of the source. Where two headings read alike, the source gives them in different places.
# Assays:
# [1] = system: TPA-induced inflammatory cell infiltration into the dermis; assay: Inhibition of TPA-induced inflammatory cell infiltration into the dermis of mice; type: in vivo, BALB/c mice; conditions: for Synergistic factor: IC50 without auranofin divided by IC50 with auranofin (0.2%); for IC50 / Emax: Mus musculus; for Emax: read-out: Emax (% inhibition); for Relative potency: hydrocortisone acetate = 1.0
# Description: (§1) The mice were housed in stainless steel cages, 6 mice per cage under normal laboratory conditions (room temperature at about 22° C.) at least 7 days before the experiments for acclimatization. Food and water were allowed ad libitum throughout the experiment period. The backs of the mice were shaved with an electric clipper two days before each treatment and only those mice showing no hair regrowth were used (i.e., the mice in the resting phase of the hair growth cycle were selected). During treatment, the mice were held with their tails and put on top of the cage so that they grasped the cage and rested there. The solutions were applied to an area approximately 2 cm×2 cm on the shaved back of the mice by using a “Pipetman” to apply the solution. If auranofin ointment or ointment base was applied, the amount was standardized by using a microspatula which was crimped at one end, the ointment was then put into the ridge and the excess removed by means of another microspatula and applied sparingly twice a day. After a fixed time, the mice were killed routinely by cervical dislocation between 9 a.m. and 11 a.m. to avoid variations due to circadian rhythms, and an area (1 cm×1 cm) was excised from the centre of the treated area by scalpel and scissors. The rest of the tissues were disposed by combustion. The tissues were then fixed, embedded, sectioned and stained.
# Infiltration of inflammatory cells was determined by the same image analysis system using the section taken from the block of mouse skin embedded in paraffin wax or Spurr's resin and stained with haematoxylin and eosin or toluidine blue respectively. For each section, 10 fields, unless otherwise stated, were chosen randomly and the cell density per mm^2 of field determined. The average value for the 10 fields was obtained and entered as one value for each mouse. The mean and SEM for the six mice in each treatment group were calculated.
# The measurement of the inflammatory cell infiltration included the background values which included other materials in the dermis stained in the same way.
# (§2) The percent inhibition of drug on TPA-induced skin responses (i.e., epidermal hyperplasia, inflammatory cell infiltration and skin-fold thickness) was calculated by using the following formula: [formula]
# (§3) This provides estimates of (a) the potency, (b) the efficacy or maximum effect (Emax) and the slope of the log concentration-response curve by using Hill coefficient (γ). The Hill Equation may be expressed as follows: [formula] where IC50 is the drug concentration producing 50% of the maximal response and Emax refers to the maximal effect produced by the drug and is also termed efficacy. Efficacy is the measurement of the intrinsic ability of a drug to initiate a response once it occupies receptor sites. […] The Hill coefficient (γ) measures the slope of the dose-effect curve which can be markedly influenced by the shape of the curve that describes the binding of the drug to the receptor. For many drugs, y lies between 0.6 and 1.5. […] On the other hand, when γ is less than 1, with a shallow hyperbolic concentration effect relationship, the activity occurs over a wide range of drug levels.
# (§4) In the present study, concentration-response curves were obtained for a series of corticosteroids. In these experiments, curve fitting was accomplished using a computer programme called “The Scientist” (MicroMath Scientific Software, Salt Lake City, Utah, USA.) in which the parameters, Emax, IC50 and Hill coefficient (γ) for each steroids were estimated by using non-linear regression and least square fits.
# Mice were divided into treatment groups. TPA and corticosteroids were premixed to the concentrations required and applied to the backs of mice immediately.
# [2] = system: TPA-induced epidermal hyperplasia; assay: Inhibition of TPA-induced epidermal hyperplasia (epidermal thickness) on back skin of mice; type: in vivo, BALB/c mice; conditions: for Synergistic factor: IC50 without auranofin divided by IC50 with auranofin (0.2%); for Emax: read-out: Emax (% inhibition); for Synergism with auranofin, epidermal hyperplasia (in words): auranofin (0.2%) co-administered; for Relative potency: hydrocortisone acetate = 1.0; for Percent increase in the apparent potency of the steroid: in presence of auranofin (0.2%)
# Description: as §1
# Epidermal thickness was determined by image analysis. This image analysis system was a minicomputer (Tracor Northern TN8500) attached to a light microscope (Zeiss Axioplan) and a camcorder (Sony DXC-3000P). Sections were taken from each tissue block and 20 measurements were taken at fixed intervals from each section. The average value for the 20 measurements was obtained and entered as one value for each mouse. The mean and SEM for the six mice in each treatment group were calculated.
# as §2, §3, §4
# Mice were divided into treatment groups. TPA and corticosteroids were premixed to the concentrations required and applied to the backs of mice immediately. For those steroids not very soluble in acetone (i.e., betamethasone, dexamethasone, hydrocortisone and hydrocortisone acetate), the drugs were dissolved in 100 μL dimethylformamide before further dilution with acetone. The efficacy of corticosteroids in inhibiting epidermal hyperplasia, inflammatory cell infiltration and skin-fold thickness was assessed as described previously. Concentration-response curves were determined after computer-fitting of data.
# [3] = from Hill equation, concentration that produced 50% of Emax, read-out: IC50 for inhibition of inflammatory cell infiltration in the dermis (M × 10^−4)
# [4] = read from concentration-response curve, concentration that inhibited 50% of the TPA effect, read-out: IC50 for inhibition of inflammatory cell infiltration in the dermis (M × 10^−4)
# [5] = topical, Hill equation fit, means ± SD, steroid premixed with TPA, topical, read-out: IC50 (M × 10^−4)
# [6] = with auranofin (0.2%), from computer fitted graph, means ± SD, read-out: Apparent IC50 (M × 10^−4) with auranofin
# [7] = without auranofin, from computer fitted graph, means ± SD, read-out: Apparent IC50 (M × 10^−4) without auranofin
# [8] = Hill equation fit, means ± SD, steroid premixed with TPA, topical
# [9] = Mus musculus, from Hill equation, concentration that produced 50% of Emax, read-out: IC50 for inhibition of epidermal thickening (M × 10^−4)
# [10] = Mus musculus, read from concentration-response curve, concentration that inhibited 50% of the TPA effect, read-out: IC50 for inhibition of epidermal thickening (M × 10^−4)
# [11] = Mus musculus, topical, Hill equation fit, means ± SD, steroid premixed with TPA, topical, read-out: IC50 (M × 10^−4)
# [12] = Mus musculus, with auranofin (0.2%), from computer fitted graph, means ± SD, read-out: Apparent IC50 (M × 10^−4) with auranofin
# [13] = Mus musculus, without auranofin, from computer fitted graph, means ± SD, read-out: Apparent IC50 (M × 10^−4) without auranofin
# [14] = Mus musculus, Hill equation fit, means ± SD, steroid premixed with TPA, topical
Compound,"IC50 [1, 3]","IC50 [1, 4]","IC50 [1, 5]","Emax [1, 8]",Relative potency ([1]; from Hill-equation IC50),Relative potency ([1]; from IC50 read from curve),"IC50 [2, 9]","IC50 [2, 10]","IC50 [2, 11]","Emax [2, 14]",Relative potency ([2]; from Hill-equation IC50),Relative potency ([2]; from IC50 read from curve),Potency for inhibition of TPA-induced inflammatory cell infiltration (in words) ([1]; ranking in text),Potency for inhibition of TPA-induced epidermal hyperplasia (in words) ([2]; ranking in text),also measured
"CCC(=O)OCC(=O)[C@@]1(OC(=O)CC)[C@@H](C)C[C@H]2[C@@H]3CCC4=CC(=O)C=C[C@]4(C)[C@@]3(F)[C@@H](O)C[C@@]21C [Betamethasone dipropionate, betamethasone dipropionate]",29 µM,40 µM,29 ± 6 µM,90.8 ± 3.71%,266.66,275.0,81 µM,140 µM,81 ± 36 µM,95.6 ± 6.55%,45.27,50.0,,,"Potency for inhibition of TPA-induced inflammatory cell infiltration (in words) [1]: medium to strong potencies; also recorded: strong to very strong anti-inflammatory effect; Synergistic factor [1]: 4.44; IC50 [1, 6]: 9 ± 1.6 µM; IC50 [1, 7]: 40 ± 6 µM; Increase in apparent IC50 ([1]; in presence of auranofin (0.2%), Table 10): 400-500%; Potency for inhibition of TPA-induced epidermal hyperplasia (in words) [2]: medium to strong potencies; also recorded: strong to very strong potencies; Inhibition of TPA effect (epidermal hyperplasia) ([2]; 1×10^−5 M combined with auranofin (0.2%), FIG. 1): about 65%; Synergistic factor [2]: 56.0; IC50 [2, 12]: 2.5 ± 0.3 µM; IC50 [2, 13]: 140 ± 36 µM; inhibition at 10 µM ([2]; Mus musculus, 1×10^−5 M alone, FIG. 1, read-out: Inhibition of TPA effect (epidermal hyperplasia)): ~20%; Ratio of concentration without auranofin to concentration with auranofin for the same effect ([2]; about 65% inhibition level): 50 times; Synergism with auranofin, epidermal hyperplasia (in words) [2]: massive synergism; Percent increase in the apparent potency of the steroid [2]: 5,600%; Concentration that, in the absence of auranofin, produced the same effect as the combination ([2]; same effect as 1×10^−5 M with auranofin (0.2%)): 500 µM"
"C[C@]12CCC(=O)C=C1CC[C@@H]1[C@@H]2[C@@H](O)C[C@@]2(C)[C@H]1CC[C@]2(O)C(=O)CO [Hydrocortisone, hydrocortisone]",6150 µM,6000 µM,6150 ± 966 µM,100%,1.26,1.83,4620 µM,4510 µM,4620 ± 1320 µM,99 ± 9.54%,0.79,1.55,low to medium potencies,low to medium potencies,"Synergistic factor [1]: 1.94; IC50 [1, 6]: 3100 ± 412 µM; IC50 [1, 7]: 6000 ± 966 µM; Synergistic factor [2]: 2.05; IC50 [2, 12]: 2200 ± 1120 µM; IC50 [2, 13]: 4500 ± 1320 µM; Synergism with auranofin, epidermal hyperplasia (in words) [2]: minor degree of synergism; Percent increase in the apparent potency of the steroid [2]: 100%"
C[C@@H]1C[C@H]2[C@@H]3CCC4=CC(=O)C=C[C@]4(C)[C@@]3(F)[C@@H](O)C[C@]2(C)[C@@]1(O)C(=O)CO [Dexamethasone],444 µM,410 µM,444 ± 102 µM,99%,17.42,26.83,126 µM,200 µM,126 ± 44 µM,90.7 ± 5.72%,29.10,35.0,,,
"CCCCC(=O)O[C@]1(C(=O)CO)[C@@H](C)C[C@H]2[C@@H]3CCC4=CC(=O)C=C[C@]4(C)[C@@]3(F)[C@@H](O)C[C@@]21C [Betamethasone valerate, betamethasone valerate]",29 µM,65 µM,29 ± 3 µM,73.5 ± 1.76%,266.66,169.23,15 µM,22 µM,15 ± 2 µM,82.2 ± 2.84%,244.47,318.18,strong to very strong anti-inflammatory effect,,Potency for inhibition of TPA-induced epidermal hyperplasia (in words) [2]: strong to very strong potencies; also recorded: most potent agent
CC1(C)O[C@@H]2C[C@H]3[C@@H]4CCC5=CC(=O)CC[C@]5(C)[C@@]4(F)[C@@H](O)C[C@]3(C)[C@]2(C(=O)CCl)O1 [Halcinonide],31 µM,60 µM,31 ± 5 µM,90.3 ± 6.29%,249.45,183.33,97 µM,110 µM,97 ± 13 µM,92.5 ± 2.98%,37.80,63.64,medium to strong potencies,medium to strong potencies,
CC1(C)O[C@@H]2C[C@H]3[C@@H]4CCC5=CC(=O)C=C[C@]5(C)[C@@]4(F)[C@@H](O)C[C@]3(C)[C@]2(C(=O)CO)O1 [Triamcinolone acetonide],39 µM,70 µM,39 ± 3 µM,77.2 ± 1.26%,198.28,157.14,113 µM,140 µM,113 ± 35 µM,89.8 ± 6.4%,32.45,50.0,,,
CCC(=O)OCC(=O)[C@@]1(OC(=O)CC)[C@H](C)C[C@H]2[C@H]3[C@H]([C@@H](O)C[C@@]21C)[C@@]1(C)C=CC(=O)C=C1C[C@H]3Cl [Alclometasone dipropionate],,,,,241.66,183.33,,,,,41.20,70.0,medium to strong potencies,medium to strong potencies,"IC50 ([1]; read-out: IC50 for inhibition of inflammatory cell infiltration in the dermis (M × 10^−4), from Hill equation, concentration that produced 50% of Emax): 32 µM; IC50 ([1]; read-out: IC50 for inhibition of inflammatory cell infiltration in the dermis (M × 10^−4), read from concentration-response curve, concentration that inhibited 50% of the TPA effect): 60 µM; Emax ([1]; topical): 82.1 ± 5.65%; IC50 ([1]; topical, read-out: IC50 (M × 10^−4), Hill equation fit, means ± SD, steroid premixed with TPA, topical): 32 ± 9 µM; IC50 ([2]; Mus musculus, read-out: IC50 for inhibition of epidermal thickening (M × 10^−4), from Hill equation, concentration that produced 50% of Emax): 89 µM; IC50 ([2]; Mus musculus, read-out: IC50 for inhibition of epidermal thickening (M × 10^−4), read from concentration-response curve, concentration that inhibited 50% of the TPA effect): 100 µM; Emax ([2]; Mus musculus, topical): 96.6 ± 7.9%; IC50 ([2]; Mus musculus, topical, read-out: IC50 (M × 10^−4), Hill equation fit, means ± SD, steroid premixed with TPA, topical): 89 ± 30 µM"
